Test results from paper PMC10574185, “Encapsulation and Biological Activity of Hesperetin Derivatives with HP-β-CD” (Molecules, 2023).
Values after ≈ are worked out from the molar mass of the structure shown. Read-outs that look alike come from different tables or passages of the source.

How the values were obtained:
[1] = Phase solubility studies with HP-β-CD; assay type: physicochemical
Procedure: The purpose of this part of the study was to determine the solubility of compounds of hesperetin and its Schiff bases (HHSB, HIN, and HTSC) in aqueous solution at different pHs and temperatures, and the effect of their inclusion in modified HP-β-CD on the aqueous solubility of these compounds at different pH values.
The effect of the presence of HP-β-CD at different temperatures (25, 37, and 60 °C) was determined by developing phase solubility diagrams.
In accordance with the methodology described in Section 3.4, excess amounts of each tested substance were added to aqueous solution with increasing concentration of HP-β-CD up to 16 mM, respectively, in 2 mL of 100 mM sodium acetate buffer (pH 3.6), 100 mM sodium phosphate buffer (pH 6.5) or 100 mM sodium borate buffer (pH 8.5).
Phase solubility studies were conducted according to [64] with some modifications. Excess amounts of each tested substance were added to aqueous solution with increasing concentration of HP-β-CD up to 16 mM, in 2 mL of 100 mM sodium acetate buffer (pH 3.6), 100 mM sodium phosphate buffer (pH 6.5), or 100 mM sodium borate buffer (pH 8.5), respectively. The samples were maintained in an ultrasonic bath at various temperatures (25, 37, and 60 °C) for 60 min to reach equilibrium. The aqueous solutions were then filtered through 0.45 µm acetate cellulose (CA) membrane filter and diluted. The tested compound concentration on each clear filtrate was spectrophotometrically determined by measuring at their wavelength maximum.
The complexation constant (Kc) between studied molecules and HP-β-CD was determined by using Equation (1):(1) Kc=slope/S0 (1−slope) where S0 means the water solubility of the studied substance, and “slope” means the slope of the phase solubility diagram.
Complexation efficiency was calculated from the slope of the phase solubility diagram using Equation (2):(2) CE=S0×Kc=slope/1−slope
The CE was also applied to evaluate the molar ratio in solution of tested systems using Equation (3):(3) Compound:HP−β−CD=1:(1+1/CE)

HaCaT cells = experiment: MTT cytotoxicity assay on HaCaT keratinocytes; assay type: cell-based, human; conditions: for IC50: Homo sapiens, MTT
Procedure: HaCaT keratinocyte cells were exposed to chemical compounds at nine different concentrations (from 3.9 to 995.6 µg/mL) in four replicates of each concentration for 24 and 48 h.
All compounds were dissolved in sterile DMSO (Merck Life Science, Warsaw, Poland) and were sterile-filtered with 0.22 µm pore size sterile disposable syringe filters.
HaCaT cell line (the normal immortalised human keratinocytes) used in the study derived from the 35th passage (the original material created by Prof. Dr. Petra Boukamp and Dr. Norbert Fusenig) was purchased from Cell Line Service GmbH (Eppelheim, Germany). The cells were cultured and propagated as described previously.
The cytotoxicity was assessed with MTT assay according to methodology applied previously.
The following final concentrations (in four replicates per experiment) of the test compounds were tested (µg/mL): 3.9; 7.8; 15.6; 31.1; 62.2; 124.5; 248.9; 497.8, and 995.6. […] Three independent experiments were conducted. The vehicle was cells in the culture medium. The assay was conducted for 24 h and 48 h.

[2] = system: Escherichia coli ATCC 11303; experiment: Minimal inhibition concentration (dilution + diffusion-well); assay type: cell-based; conditions: ATCC11303, 37 °C, 18 h
Procedure: (§1) The MIC was performed for compounds and strains sensitive to their action in the antagonistic test. Minimum inhibitory concentration was determined by combining the dilution method with the diffusion-well method. Test compounds at a concentration of 500 μM were prepared in 5% (w/w) DMSO. Surface layer of microorganisms, against which antagonistic activity was noted, were prepared in the same way as for the antagonistic test. Then, two-fold sequential dilutions of the test compounds in the range of 500 µM to 62.5 µM were prepared. Wells with a diameter of 8 mm cut in the Mueller–Hinton Agar (Merck, Darmstadt, Germany) with the test strain were added with 50 µL of the prepared dilutions, which corresponded to the following concentrations of the tested compounds: […], 1.25 mM, 0.625 mM, and […]. Petri dishes prepared in this way were incubated at 37 °C for 18 h. After a given time, the MIC value was read. The MIC concentration expressed in µM was the first concentration of the tested compounds at which growth inhibition of the test strain was observed.

[3] = system: Staphylococcus aureus ATCC 25923; experiment: as above; assay type: cell-based; conditions: ATCC25923, 37 °C, 18 h
Procedure: as §1

CE complexation efficiency ([1]; 25 °C, pH 3.6, with HP-β-CD): 0.7% | Kc complexation constant ([1]; 25 °C, pH 3.6, with HP-β-CD): 102 ± 43 M⁻¹ | CE complexation efficiency ([1]; 25 °C, pH 6.5, with HP-β-CD): 0.2% | Kc complexation constant ([1]; 25 °C, pH 6.5, with HP-β-CD): 39 ± 3.6 M⁻¹ | CE complexation efficiency ([1]; 25 °C, pH 8.5, with HP-β-CD): 1.3% | Kc complexation constant ([1]; 25 °C, pH 8.5, with HP-β-CD): 143 ± 1.6 M⁻¹ | CE complexation efficiency ([1]; 37 °C, pH 3.6, with HP-β-CD): 1.3% | Kc complexation constant ([1]; 37 °C, pH 3.6, with HP-β-CD): 145 ± 13 M⁻¹ | CE complexation efficiency ([1]; 37 °C, pH 6.5, with HP-β-CD): 0.04% | Kc complexation constant ([1]; 37 °C, pH 6.5, with HP-β-CD): 25 ± 3.9 M⁻¹ | CE complexation efficiency ([1]; 37 °C, pH 8.5, with HP-β-CD): 0.04% | Kc complexation constant ([1]; 37 °C, pH 8.5, with HP-β-CD): 28 ± 3.9 M⁻¹ | increase of solubility with HP-β-CD ([1]; 60 °C, pH 3.6): five-fold | CE complexation efficiency ([1]; 60 °C, pH 3.6, with HP-β-CD): 0.3% | Kc complexation constant ([1]; 60 °C, pH 3.6, with HP-β-CD): 62 ± 1.7 M⁻¹ | increase of solubility with HP-β-CD ([1]; 60 °C, pH 6.5): five-fold | CE complexation efficiency ([1]; 60 °C, pH 6.5, with HP-β-CD): 0.3% | Kc complexation constant ([1]; 60 °C, pH 6.5, with HP-β-CD): 61 ± 2.6 M⁻¹ | CE complexation efficiency ([1]; 60 °C, pH 8.5, with HP-β-CD): 3.7% | Kc complexation constant ([1]; 60 °C, pH 8.5, with HP-β-CD): 132 ± 23 M⁻¹ | solubility at 60 min ([1]; aqueous buffer solutions, 25 °C, pH 3.6 to 8.5, read-out: solubility, increasing trend with increasing pH): 17 to 90 µM (≈ 7.16 to 37.9 µg/mL) | solubility at 60 min ([1]; aqueous buffer, thermodynamic from solid, 25 °C, pH 3.6 sodium acetate buffer, without cyclodextrin, read-out: solubility without HP-β-CD (value in brackets) (converted)): 29 µM (≈ 12.2 µg/mL) | solubility at 60 min ([1]; aqueous buffer, thermodynamic from solid, 25 °C, pH 6.5 sodium phosphate buffer, without cyclodextrin, read-out: solubility without HP-β-CD (value in brackets) (converted)): 17 µM (≈ 7.16 µg/mL) | solubility at 60 min ([1]; aqueous buffer, thermodynamic from solid, 25 °C, pH 8.5 sodium borate buffer, without cyclodextrin, read-out: solubility without HP-β-CD (value in brackets) (converted)): 20 µM (≈ 8.43 µg/mL) | solubility at 60 min ([1]; aqueous buffer, thermodynamic from solid, 37 °C, pH 3.6 sodium acetate buffer, without cyclodextrin, read-out: solubility without HP-β-CD (value in brackets) (converted)): 20 µM (≈ 8.43 µg/mL) | solubility at 60 min ([1]; aqueous buffer, thermodynamic from solid, 37 °C, pH 6.5 sodium phosphate buffer, without cyclodextrin, read-out: solubility without HP-β-CD (value in brackets) (converted)): 1 µM (≈ 0.421 µg/mL) | solubility at 60 min ([1]; aqueous buffer, thermodynamic from solid, 37 °C, pH 8.5 sodium borate buffer, without cyclodextrin, read-out: solubility without HP-β-CD (value in brackets) (converted)): 1 µM (≈ 0.421 µg/mL) | solubility at 60 min ([1]; aqueous buffer, thermodynamic from solid, 60 °C, pH 3.6 sodium acetate buffer, without cyclodextrin, read-out: solubility without HP-β-CD (value in brackets) (converted)): 8 µM (≈ 3.37 µg/mL) | solubility at 60 min ([1]; aqueous buffer, thermodynamic from solid, 60 °C, pH 6.5 sodium phosphate buffer, without cyclodextrin, read-out: solubility without HP-β-CD (value in brackets) (converted)): 8 µM (≈ 3.37 µg/mL) | solubility at 60 min ([1]; aqueous buffer, thermodynamic from solid, 60 °C, pH 8.5 sodium borate buffer, without cyclodextrin, read-out: solubility without HP-β-CD (value in brackets) (converted)): 143 µM (≈ 60.3 µg/mL) | solubility at 60 min ([1]; thermodynamic from solid, 25 °C, pH 3.6 sodium acetate buffer, with HP-β-CD, read-out: S0 (solubility with HP-β-CD)): 68 ± 40 µM (≈ 28.7 µg/mL) | solubility at 60 min ([1]; thermodynamic from solid, 25 °C, pH 6.5 sodium phosphate buffer, with HP-β-CD, read-out: S0 (solubility with HP-β-CD)): 52 ± 24 µM (≈ 21.9 µg/mL) | solubility at 60 min ([1]; thermodynamic from solid, 25 °C, pH 8.5 sodium borate buffer, with HP-β-CD, read-out: S0 (solubility with HP-β-CD)): 90 ± 50 µM (≈ 37.9 µg/mL) | solubility at 60 min ([1]; thermodynamic from solid, 37 °C, pH 3.6 sodium acetate buffer, with HP-β-CD, read-out: S0 (solubility with HP-β-CD)): 90 ± 50 µM (≈ 37.9 µg/mL) | solubility at 60 min ([1]; thermodynamic from solid, 37 °C, pH 6.5 sodium phosphate buffer, with HP-β-CD, read-out: S0 (solubility with HP-β-CD)): 15 ± 9 µM (≈ 6.32 µg/mL) | solubility at 60 min ([1]; thermodynamic from solid, 37 °C, pH 8.5 sodium borate buffer, with HP-β-CD, read-out: S0 (solubility with HP-β-CD)): 14 ± 10 µM (≈ 5.9 µg/mL) | solubility at 60 min ([1]; thermodynamic from solid, 60 °C, pH 3.6 sodium acetate buffer, with HP-β-CD, read-out: S0 (solubility with HP-β-CD)): 41 ± 20 µM (≈ 17.3 µg/mL) | solubility at 60 min ([1]; thermodynamic from solid, 60 °C, pH 6.5 sodium phosphate buffer, with HP-β-CD, read-out: S0 (solubility with HP-β-CD)): 41 ± 20 µM (≈ 17.3 µg/mL) | solubility at 60 min ([1]; thermodynamic from solid, 60 °C, pH 8.5 sodium borate buffer, with HP-β-CD, read-out: S0 (solubility with HP-β-CD)): 283 ± 27 µM (≈ 119 µg/mL) | MIC [2]: 2.5 µM | MIC [3]: 2.5 µM
Compound: COc1ccc(C2C/C(=N\NC(=O)c3ccncc3)c3c(O)cc(O)cc3O2)cc1O (racemic) [HIN]
Non-cytotoxic concentration (IC0) (HaCaT cells; 24 h exposure): ≤ 7.8 µg/mL | Non-cytotoxic concentration (IC0) (HaCaT cells; 48 h exposure): ≤ 15.6 µg/mL | IC50 (HaCaT cells; 24 h exposure, read-out: IC50 After 24 h): 350 µg/mL (≈ 831 µM) | IC50 (HaCaT cells; 48 h exposure, read-out: IC50 After 48 h): 59.7 µg/mL (≈ 142 µM)
